# Reference: ChEMBL document CHEMBL1201862, “PubChem BioAssay data set” (2004)
#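 Cultured in 96-well plates, cells were exposed to test compound for 48 hours across five concentrations. At the GI50, growth is halved.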 Activity calls are given as the source filed them. Rule as the data show it: active = GI50 up to about 1.1 µM and inactive = higher.
# Assays:
# Assay in all cases: DTP human tumour cell line panel, 48 h
# [1] = test system: A549
# [2] = test system: ACHN
# [3] = test system: COLO 205
# [4] = test system: DLD-1
# [5] = test system: HOP-62
# [6] = test system: HT-29
# [7] = test system: M14
# [8] = test system: Malme-3M
# [9] = test system: NCI-H23
# [10] = test system: NCI-H522
# [11] = test system: RXF 393
# [12] = test system: UO-31
# [13] = test system: A498
# [14] = test system: BT-549
# [15] = test system: Hs-578T
# [16] = test system: MCF7
# [17] = test system: MDA-MB-435
# [18] = test system: NCI-H226
# [19] = test system: SF-268
# [20] = test system: SK-OV-3
SMILES,GI50 [1],GI50 [2],GI50 [3],GI50 [4],GI50 [5],GI50 [6],GI50 [7],GI50 [8],GI50 [9],GI50 [10],GI50 [11],GI50 [12],GI50 [13],GI50 [14],GI50 [15],GI50 [16],GI50 [17],GI50 [18],GI50 [19],GI50 [20]
CNS(=O)(=O)NNS(=O)(=O)c1cccc([N+](=O)[O-])c1,> 100 µM (inactive),> 100 µM (inactive),> 100 µM (inactive),> 100 µM (inactive),> 100 µM (inactive),> 100 µM (inactive),> 100 µM (inactive),> 100 µM (inactive),> 100 µM (inactive),> 100 µM (inactive),> 100 µM (inactive),> 100 µM (inactive),–,–,–,–,–,–,–,–
C/C(=C\CBr)CCC(Br)C(C)(C)Br (stereo not given),> 100 µM (inactive),> 100 µM (inactive),> 100 µM (inactive),–,> 100 µM (inactive),> 100 µM (inactive),> 100 µM (inactive),> 100 µM (inactive),> 100 µM (inactive),> 100 µM (inactive),> 100 µM (inactive),> 100 µM (inactive),> 100 µM (inactive),> 100 µM (inactive),> 100 µM (inactive),> 100 µM (inactive),> 100 µM (inactive),> 100 µM (inactive),> 100 µM (inactive),> 100 µM (inactive)
CC(=O)O/C(=C1\C[C@H]2[C@@H]3CC=C4C[C@@H](OC(C)=O)CC[C@]4(C)[C@H]3CC[C@]2(C)C1=O)C(F)(F)F,15.3 µM (inactive),16.2 µM (inactive),10.8 µM (inactive),–,14.1 µM (inactive),10.1 µM (inactive),7.19 µM (inactive),3.56 µM (inactive),6.85 µM (inactive),3.18 µM (inactive),6.19 µM (inactive),12.1 µM (inactive),19.3 µM (inactive),12.2 µM (inactive),7 µM (inactive),5.86 µM (inactive),7.85 µM (inactive),21 µM (inactive),6.62 µM (inactive),20.1 µM (inactive)
C[C@H](CCCOS(C)(=O)=O)[C@H]1CC[C@H]2[C@@H]3CC[C@@H]4C[C@H](OS(C)(=O)=O)CC[C@]4(C)[C@H]3CC[C@]12C,17 µM (inactive),15.6 µM (inactive),> 100 µM (inactive),–,22.5 µM (inactive),31.8 µM (inactive),90.4 µM (inactive),15.2 µM (inactive),16.6 µM (inactive),29.7 µM (inactive),52 µM (inactive),34 µM (inactive),22.3 µM (inactive),36.8 µM (inactive),24.4 µM (inactive),26.4 µM (inactive),20.5 µM (inactive),17.5 µM (inactive),27 µM (inactive),20.3 µM (inactive)
CC(=O)NC1C(OCc2ccccc2)OC(CO)C(O)C1OC(C)C(=O)NC(C(=O)NC(CCC(=O)NCCCCNc1c2ccccc2nc2cccc([N+](=O)[O-])c12)C(N)=O)C(C)C (stereo not given),1.29 µM (inactive),1.97 µM (inactive),1.05 µM (active),–,3.15 µM (inactive),1.14 µM (inactive),1.62 µM (inactive),1.82 µM (inactive),1.79 µM (inactive),0.186 µM (active),1.56 µM (inactive),2.89 µM (inactive),1.84 µM (inactive),5.97 µM (inactive),8.57 µM (inactive),0.499 µM (active),1.45 µM (inactive),3.27 µM (inactive),2.99 µM (inactive),8.73 µM (inactive)
COC(=O)C(I(OS(=O)(=O)c1ccc(C)cc1)c1ccccc1)=P(c1ccccc1)(c1ccccc1)c1ccccc1,24.5 µM (inactive),16.6 µM (inactive),3.13 µM (inactive),–,19.3 µM (inactive),20.6 µM (inactive),15.8 µM (inactive),7.94 µM (inactive),16.8 µM (inactive),13 µM (inactive),20.5 µM (inactive),22.2 µM (inactive),18.2 µM (inactive),21.2 µM (inactive),24.7 µM (inactive),30.3 µM (inactive),18 µM (inactive),8.39 µM (inactive),17.5 µM (inactive),25.1 µM (inactive)
CCOC(=O)C1C2C1C1C(C(=O)OCC)C21 (stereo not given),> 100 µM (inactive),> 100 µM (inactive),> 100 µM (inactive),–,> 100 µM (inactive),57.5 µM (inactive),> 100 µM (inactive),> 100 µM (inactive),> 100 µM (inactive),> 100 µM (inactive),81.8 µM (inactive),> 100 µM (inactive),> 100 µM (inactive),> 100 µM (inactive),> 100 µM (inactive),51.3 µM (inactive),> 100 µM (inactive),> 100 µM (inactive),> 100 µM (inactive),> 100 µM (inactive)
CC(=O)Nc1nc(Cl)cc(NCC2(CO)CCC2)n1,> 100 µM (inactive),> 100 µM (inactive),> 100 µM (inactive),–,> 100 µM (inactive),> 100 µM (inactive),> 100 µM (inactive),> 100 µM (inactive),> 100 µM (inactive),> 100 µM (inactive),> 100 µM (inactive),> 100 µM (inactive),> 100 µM (inactive),> 100 µM (inactive),> 100 µM (inactive),> 100 µM (inactive),> 100 µM (inactive),> 100 µM (inactive),> 100 µM (inactive),> 100 µM (inactive)
N#Cc1ccc(Nc2cnc3cc(N)ccc3n2)cc1,> 100 µM (inactive),69 µM (inactive),> 100 µM (inactive),> 100 µM (inactive),> 100 µM (inactive),50.5 µM (inactive),> 100 µM (inactive),> 100 µM (inactive),> 100 µM (inactive),48.2 µM (inactive),26.5 µM (inactive),56 µM (inactive),–,–,–,–,–,> 100 µM (inactive),> 100 µM (inactive),> 100 µM (inactive)
Cc1nc2c(n1CC(C)(C)C)C(=O)c1ccccc1C2=O,> 100 µM (inactive),> 100 µM (inactive),> 100 µM (inactive),> 100 µM (inactive),> 100 µM (inactive),98.9 µM (inactive),> 100 µM (inactive),76.9 µM (inactive),> 100 µM (inactive),92.7 µM (inactive),> 100 µM (inactive),> 100 µM (inactive),–,–,–,–,–,> 100 µM (inactive),> 100 µM (inactive),> 100 µM (inactive)
O=c1ccs[nH]1,19.9 µM (inactive),7.05 µM (inactive),8.91 µM (inactive),–,17 µM (inactive),11.2 µM (inactive),9.89 µM (inactive),8.91 µM (inactive),3.8 µM (inactive),0.42 µM (active),7.96 µM (inactive),7.21 µM (inactive),46.8 µM (inactive),16.8 µM (inactive),22 µM (inactive),8.36 µM (inactive),13.6 µM (inactive),51.1 µM (inactive),14.2 µM (inactive),26.3 µM (inactive)
CC(C)=CCCC(C)CCOS(=O)C(F)(F)F (stereo not given),22.9 µM (inactive),11.4 µM (inactive),4.7 µM (inactive),–,70.1 µM (inactive),5.12 µM (inactive),1.35 µM (inactive),3.15 µM (inactive),2.58 µM (inactive),1.71 µM (inactive),1.89 µM (inactive),13.1 µM (inactive),20.8 µM (inactive),5.24 µM (inactive),1.16 µM (inactive),34.7 µM (inactive),4.18 µM (inactive),20 µM (inactive),17.7 µM (inactive),22.1 µM (inactive)
C/C(=N\NC(=N)N)C(CN1CCOCC1)C(c1ccccc1)c1c(O)c2ccccc2oc1=O (stereo not given),> 100 µM (inactive),> 100 µM (inactive),49.4 µM (inactive),> 100 µM (inactive),> 100 µM (inactive),> 100 µM (inactive),> 100 µM (inactive),25.9 µM (inactive),76.7 µM (inactive),> 100 µM (inactive),29 µM (inactive),–,–,–,–,–,–,> 100 µM (inactive),> 100 µM (inactive),> 100 µM (inactive)
Cc1ccc(S(=O)(=O)CC2(Br)CCc3ccccc3C2=O)cc1 (stereo not given),45.3 µM (inactive),19.8 µM (inactive),18.1 µM (inactive),–,39.4 µM (inactive),20.8 µM (inactive),45.4 µM (inactive),33.5 µM (inactive),33.6 µM (inactive),15.6 µM (inactive),18.1 µM (inactive),14.8 µM (inactive),25.8 µM (inactive),18.3 µM (inactive),32.6 µM (inactive),24.5 µM (inactive),16.5 µM (inactive),41.8 µM (inactive),16.6 µM (inactive),39.7 µM (inactive)
O=C1C(O)=C(C(CCc2ccccc2)C2=C(O)C(=O)c3ccccc3C2=O)C(=O)c2ccccc21,33 µM (inactive),65.9 µM (inactive),28.4 µM (inactive),–,28.8 µM (inactive),18.8 µM (inactive),11.5 µM (inactive),4.27 µM (inactive),3.65 µM (inactive),23.8 µM (inactive),> 100 µM (inactive),> 100 µM (inactive),76.4 µM (inactive),> 100 µM (inactive),5.32 µM (inactive),40.2 µM (inactive),13.9 µM (inactive),> 100 µM (inactive),92.9 µM (inactive),> 100 µM (inactive)
